Results from ChEMBL document CHEMBL1201862, “PubChem BioAssay data set” (2004).
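48-hour exposure; five concentrations; linearly interpolated endpoints. GI50 = concentration required for 50% inhibition of growth.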 The source made the active and inactive calls. Rule as the data show it: active = GI50 up to about 1.1 µM and inactive = higher.

How the values were obtained:
Test in all cases: NCI anticancer screen, dose series, 48 h
MOLT-4 = test system: MOLT-4
EKVX = test system: EKVX
U-251 = test system: U-251
Hs-578T = test system: Hs-578T
HL-60 = test system: HL-60
COLO 205 = test system: COLO 205
TK-10 = test system: TK-10
UACC-257 = test system: UACC-257
UACC-62 = test system: UACC-62
SNB-19 = test system: SNB-19
SK-MEL-5 = test system: SK-MEL-5
SF-268 = test system: SF-268
KM12 = test system: KM12
MDA-MB-435 = test system: MDA-MB-435
PC-3 = test system: PC-3
K562 = test system: K562
CCRF-CEM = test system: CCRF-CEM
A498 = test system: A498
SF-295 = test system: SF-295
OVCAR-4 = test system: OVCAR-4

SMILES | GI50 (MOLT-4) | GI50 (EKVX) | GI50 (U-251) | GI50 (Hs-578T) | GI50 (HL-60) | GI50 (COLO 205) | GI50 (TK-10) | GI50 (UACC-257) | GI50 (UACC-62) | GI50 (SNB-19) | GI50 (SK-MEL-5) | GI50 (SF-268) | GI50 (KM12) | GI50 (MDA-MB-435) | GI50 (PC-3) | GI50 (K562) | GI50 (CCRF-CEM) | GI50 (A498) | GI50 (SF-295) | GI50 (OVCAR-4)
N#CC12COC3(CCCCC3C1(C#N)C#N)OC2=N (centres undefined) | 10.9 µM (inactive) | 18.5 µM (inactive) | 8.87 µM (inactive) | 17.1 µM (inactive) | 2.91 µM (inactive) | 6.4 µM (inactive) | 16.2 µM (inactive) | 17.4 µM (inactive) | 14.7 µM (inactive) | 17.8 µM (inactive) | 11.4 µM (inactive) | 12.7 µM (inactive) | > 10 µM (inactive) | 18.9 µM (inactive) | 13.8 µM (inactive) | 10.6 µM (inactive) | 3.53 µM (inactive) | 18.2 µM (inactive) | 19.5 µM (inactive) | 
O=C1c2ccccc2/N=C(/c2cc3c(cc2Cl)Sc2nccn2S3(=O)=O)OS(=O)(=O)N1c1ccccc1 | 9.33 µM (inactive) | 30 µM (inactive) | 29.2 µM (inactive) | 46.8 µM (inactive) | 31.3 µM (inactive) | 19.9 µM (inactive) | 24.4 µM (inactive) | 64.7 µM (inactive) | 20.5 µM (inactive) | 33.7 µM (inactive) |  | 37.3 µM (inactive) | 23 µM (inactive) | 21.3 µM (inactive) | 44.4 µM (inactive) | 35.2 µM (inactive) | 4.65 µM (inactive) | > 100 µM (inactive) | 16.9 µM (inactive) | 21.1 µM (inactive)
COc1ccc(C(=O)Nc2ccc(O)c(=O)cc2)cc1 |  | 21.4 µM (inactive) | 38.7 µM (inactive) | 29.2 µM (inactive) | 21.3 µM (inactive) | 24.2 µM (inactive) | 53 µM (inactive) | 40.6 µM (inactive) | 32.5 µM (inactive) | 36.1 µM (inactive) | 41.6 µM (inactive) | 21 µM (inactive) | 39.4 µM (inactive) | 43.4 µM (inactive) | 40 µM (inactive) | 32.4 µM (inactive) | 24 µM (inactive) | < 0.01 µM (active) | 37.8 µM (inactive) | 
O=c1[nH]nc(Cc2ccccc2)n1/N=C\c1ccccc1 | > 100 µM (inactive) | > 100 µM (inactive) | 37.1 µM (inactive) | 76.2 µM (inactive) | > 100 µM (inactive) | > 100 µM (inactive) | > 100 µM (inactive) | > 100 µM (inactive) | 95.5 µM (inactive) |  | > 100 µM (inactive) | > 10 µM (inactive) | > 100 µM (inactive) | > 100 µM (inactive) | > 100 µM (inactive) | > 100 µM (inactive) | > 100 µM (inactive) | > 100 µM (inactive) | 43.9 µM (inactive) | > 100 µM (inactive)
C=C1CCCCCCCCC/C=C/1SCCCSC | > 100 µM (inactive) | > 100 µM (inactive) | > 100 µM (inactive) | > 100 µM (inactive) | > 100 µM (inactive) | > 100 µM (inactive) | > 100 µM (inactive) | > 100 µM (inactive) | > 100 µM (inactive) | > 100 µM (inactive) | > 100 µM (inactive) | > 100 µM (inactive) | > 100 µM (inactive) | > 100 µM (inactive) | > 100 µM (inactive) | > 100 µM (inactive) |  | > 100 µM (inactive) | > 100 µM (inactive) | > 100 µM (inactive)
C=C(C)CC1=C(OCC)C(OC)(OCC)C1=O (centres undefined) | > 100 µM (inactive) | > 100 µM (inactive) | > 100 µM (inactive) | > 100 µM (inactive) | > 100 µM (inactive) | > 100 µM (inactive) | > 100 µM (inactive) | > 100 µM (inactive) | > 100 µM (inactive) | > 100 µM (inactive) | > 100 µM (inactive) | > 100 µM (inactive) | > 100 µM (inactive) | > 100 µM (inactive) | > 100 µM (inactive) |  | > 100 µM (inactive) | > 100 µM (inactive) | > 100 µM (inactive) | > 100 µM (inactive)
C/C(=N\OCC(O)CNCCSCc1ccccc1)c1ccccc1Cl (centres undefined) | 47.5 µM (inactive) | 20 µM (inactive) |  | 27.7 µM (inactive) | 24 µM (inactive) | 19.2 µM (inactive) | 17 µM (inactive) | 18.5 µM (inactive) | 18.6 µM (inactive) | 18.5 µM (inactive) | 17.1 µM (inactive) | 17.3 µM (inactive) | 18.6 µM (inactive) | 17.4 µM (inactive) | 18.5 µM (inactive) | 38.4 µM (inactive) | 28.6 µM (inactive) | 15.6 µM (inactive) | 18.6 µM (inactive) | 
O=c1oc2ccccc2c2c(=O)c3ccc(OC/C(=N/O)c4ccc(Cl)cc4)cc3oc12 | 5.06 µM (inactive) |  | 9.51 µM (inactive) | 8.3 µM (inactive) | 9.25 µM (inactive) | 15 µM (inactive) |  | 33.9 µM (inactive) | 5.07 µM (inactive) | 14.9 µM (inactive) | 5.05 µM (inactive) | 14.2 µM (inactive) | 3.11 µM (inactive) | 2.47 µM (inactive) | 7.48 µM (inactive) | 2 µM (inactive) | 28.3 µM (inactive) | 3.15 µM (inactive) | 1.89 µM (inactive) | 
CC(=O)C1=C(C)N2C(=NC3=C(CCc4ccccc43)C2c2cccc(Br)c2)S1 (centres undefined) |  | 11.4 µM (inactive) | > 100 µM (inactive) | 67.1 µM (inactive) | 25.8 µM (inactive) | 88.1 µM (inactive) |  | 84.1 µM (inactive) | 68.2 µM (inactive) | > 100 µM (inactive) | 41.3 µM (inactive) | > 100 µM (inactive) | 49.7 µM (inactive) | > 100 µM (inactive) | > 100 µM (inactive) |  | 69.7 µM (inactive) | > 100 µM (inactive) | > 100 µM (inactive) | > 100 µM (inactive)
C=C(C)CC1=C(C(=S)NCCO[Si](C)(C)C(C)(C)C)C(OCC)(OCC)C1=O | > 100 µM (inactive) | 16.6 µM (inactive) | 19.9 µM (inactive) | 24.8 µM (inactive) | > 100 µM (inactive) | 22.3 µM (inactive) | 16.1 µM (inactive) | 16.9 µM (inactive) | 17.7 µM (inactive) | 17.7 µM (inactive) | 15.2 µM (inactive) | 19.1 µM (inactive) | 16.7 µM (inactive) | 16.9 µM (inactive) | 14.8 µM (inactive) |  | > 100 µM (inactive) | 21.7 µM (inactive) | 17.6 µM (inactive) | 12.9 µM (inactive)
CN(C)c1nc2n(CCO)c(-c3ccccc3)c(-c3ccccc3)nc-2c(=O)n1 | > 100 µM (inactive) | > 100 µM (inactive) | > 100 µM (inactive) | > 100 µM (inactive) |  | > 100 µM (inactive) | > 100 µM (inactive) | > 100 µM (inactive) | > 100 µM (inactive) | > 100 µM (inactive) | > 100 µM (inactive) | > 100 µM (inactive) | > 100 µM (inactive) | > 100 µM (inactive) | > 100 µM (inactive) | > 100 µM (inactive) | > 100 µM (inactive) | > 100 µM (inactive) | > 100 µM (inactive) | > 100 µM (inactive)
CSc1ncc2c(n1)-c1ccccc1OC2NC(C)(C)C (centres undefined) | 47.2 µM (inactive) | 29 µM (inactive) | > 100 µM (inactive) | 83.4 µM (inactive) | > 100 µM (inactive) | > 100 µM (inactive) | 33.9 µM (inactive) | > 100 µM (inactive) | 68.1 µM (inactive) | > 100 µM (inactive) |  | 87.3 µM (inactive) | > 100 µM (inactive) | > 100 µM (inactive) | > 100 µM (inactive) | > 100 µM (inactive) | 91.4 µM (inactive) | 2.62 µM (inactive) | 47.3 µM (inactive) | > 100 µM (inactive)
CC(C)C(C=O)C(O)(C(F)(F)F)C(F)(F)F (centres undefined) | > 100 µM (inactive) | > 100 µM (inactive) | > 100 µM (inactive) | 59.3 µM (inactive) | > 100 µM (inactive) | > 100 µM (inactive) | > 100 µM (inactive) | > 100 µM (inactive) | > 100 µM (inactive) | > 100 µM (inactive) | > 100 µM (inactive) |  | > 100 µM (inactive) | > 100 µM (inactive) | > 100 µM (inactive) | > 100 µM (inactive) | > 10 µM (inactive) | > 100 µM (inactive) | > 100 µM (inactive) | > 100 µM (inactive)
CC1(C)SC2C(NC(=O)C(C(=O)O)c3ccccc3)C(=O)N2C1C(=O)O (centres undefined) | > 100 µM (inactive) | > 100 µM (inactive) | > 100 µM (inactive) | > 100 µM (inactive) | > 100 µM (inactive) | > 100 µM (inactive) | > 100 µM (inactive) | > 100 µM (inactive) | > 100 µM (inactive) | > 100 µM (inactive) | > 100 µM (inactive) | > 100 µM (inactive) | > 100 µM (inactive) | > 100 µM (inactive) | > 100 µM (inactive) | > 100 µM (inactive) | > 100 µM (inactive) | > 100 µM (inactive) | > 100 µM (inactive) | 
O=[N+]([O-])c1cc(-c2nnc(C34CC5CC(CC(C5)C3)C4)o2)cc([N+](=O)[O-])c1 | > 100 µM (inactive) | > 100 µM (inactive) | 45.5 µM (inactive) | 64.7 µM (inactive) | > 100 µM (inactive) | 17.9 µM (inactive) |  | 83.4 µM (inactive) | 86.9 µM (inactive) | > 100 µM (inactive) | 14.1 µM (inactive) | 86.1 µM (inactive) | > 100 µM (inactive) | 19.1 µM (inactive) | 45.2 µM (inactive) | 21 µM (inactive) | > 100 µM (inactive) | 61.7 µM (inactive) | > 100 µM (inactive) | > 100 µM (inactive)
